Measured values: US7511173B2, “Creatine salt with enhanced nutritional and therapeutic efficacy and compositions containing same” (Iovate T & P Inc., priority 2004, dated 2009)

Tests used:
Type in all cases: physicochemical
hygroscopicity = experiment: hygroscopicity
pH of aqueous solution = conditions: c = 1% in water
[1] = stability in aqueous solution (titer, degradation into creatinine); conditions: solution of about 15 mg/ml (1.5%), after 10 days at room temperature

Compound	hygroscopicity (hygroscopicity)	pH (pH of aqueous solution)	titer drop in aqueous solution [1]
CN(CC(=O)O)C(=N)N.NCC(=O)O [creatine glycinate]	non-hygroscopic	6; c = 1% in water	–
citrate	–	–	about 50%
